From US20260027073A1, “USE OF SMALL-MOLECULE COMPOUND HAVING NAPHTHYLAMINE STRUCTURE” (HANGZHOU PHECDAMED CO., LTD., priority 2023, published 2026)

Columns and labels:
[1] = system: CUMS animal model of depression; test: CUMS depression model behavioral tests; assay type: in vivo, C57BL/6J mice; conditions: Fluoxetine 30 mg/kg
Excerpt: Depression, also known as depressive disorder, is characterized by significant and long-lasting depressed state of mind as the main clinical feature. The CUMS animal model of depression is a chronic unpredictable animal stress model, which simulates part of the stressor, the external material environmental stimulus, and will cause dysfunctions in the animal organism through different stress stimuli, leading to occurrence of the psychiatric disease depression. […] During this period, carefully observing the status of each mouse. • (6) Basket shaking: Placing the mice in an empty basket and shaking the basket drastically, with the criterion that the mice in the basket are unable to stand firm and sway with the shaking of the basket, for 1 hour. • (7) Olfactory stimulation: Placing anise and other spices in the mice's baskets as a means of olfactory stimulation.
The above seven experiments were conducted randomly during a week as a way to achieve unpredictability with 4 weeks of continuous stimulation.
At the end of the modeling, an open field test experiment was conducted to screen the modeled animals and group the successful modeled animals into five groups: normal group (Control), model control group (Model), positive drug treatment group (Fluoxetine), TJ0113 10 mg/kg treatment group (10 mg/kg), […], TJ0113 30 mg/kg treatment group (30 mg/kg). There were 10 mice in each group, and the administration treatment was administered by gavage, the normal and model control groups were given vehicle treatment, the vehicle was 0.5% CMC-Na, the positive drug fluoxetine hydrochloride was solubilized in saline and administered at a dose of 30 mg/kg, and the TJ0113 vehicle was 0.5% CMC-Na, and administered at a dose of 10 mg/kg and 30 mg/kg, respectively. 4 weeks after the end of the administration, behavioral tests were performed.
• (1) Adaptive feeding: Adaptive feeding with 1% sucrose water and plain water for 2 d before the start of the test, at 1 d, interchanging the sugar water and plain water to avoid positional differences for the animals, and fasting food and water for 1 d after adaption; • (2) Formal test: after fasting food and water, 1% sucrose water and plain water were given to the animals (the initial mass of sugar water and plain water is known), and weighing the remaining mass of sugar water/plain water of each animal after 24 h, and calculating the consumption rates of sugar water A and plain water B; • (3) Data analysis: sugar water preference rate=(A/A+B)×100%.
• (1) adapting to the environment: placing the animals in the test environment for 60 min to adapt to the environment before the test; • (2) Formal test: fixing the rear 1/3 of the mouse tail with tape and suspending on the stand of the experimental apparatus, with the head 15 cm from the bottom; • (3) starting timing camera, and stopping after 6 min, and recording the immobility time of the mice within 4 min; • (4) At the end of the test, using 75% alcohol to wipe the bottom and inner wall of the chamber.
• (1) adapting to the environment: placing the animals in the test environment for 60 min to adapt to the environment before the test; • (2) Formal test: placing the animals to be tested in the middle of the open field, and using the ANY-Maze software to collect the data, the test time is 10 min, and the feces and urine must be removed at the end of each round and disinfected and wiped dry with 75% alcohol; • (3) Analysis of results: total moved distance and average speed during the activity, time spent in the center area and time spent in the corner area.

[2] = system: rats of adenine induced kidney injury model; test: Adenine-induced kidney injury; assay type: in vivo, SD rats; conditions: 15 mg/kg, 21 days; FIG. 12
[3] = system: myocardial infarction rats; test: Myocardial infarction by coronary artery ligation; assay type: in vivo, SD rats; conditions: TJ01-013 30 mg/kg, Entresto 10 mg/kg, oral, 4 weeks
Protocol: 180 g-200 g SD rats were anesthetized by chloral hydrate after fasting for 12 h, the hair from the mandible to the upper part of the abdominal cavity and the ventral surfaces of the limbs was removed cleanly, and they were fixed on the surgical table, firstly, a small incision of about 1.5 cm was made in the neck with a scalpel, and then the subcutaneous muscle layer was bluntly separated with surgical scissors to expose the trachea, and then the tracheal tube was intubated and connected to the animal respiratory machine. After sterilizing with iodophor, the skin was cut on the left side of the chest between the 3rd and 4th ribs, and the muscles were bluntly separated to expose the ribs. The 3rd rib was cut with surgical scissors, hemostatic forceps were used to clamp and break the cut rib, and an eyelid opener was placed to peel the pericardium. After the pericardium was cut, a cotton swab moistened with saline was used to gently pivot the heart to locate the left auricle and coronary arteries. A threaded suture needle was clamped with a microscopic needle holder, and passed through the myocardium from right to left at 2-3 mm below the left auricle to ligate the coronary artery. At the end of the ligation, the organs in the thoracic cavity were recovered with saline-soaked cotton swabs, and figure-of-eight sutures were applied to the third and fourth ribs. After the rib layer suture was completed, subcutaneous muscle layering suture was performed, and the skin was finally sutured. After dialing out the tracheal tube, the rats were closely observed whether they had spontaneous respiration or not, and if there was no respiration they should be immediately pressed on the chest cavity for cardiopulmonary resuscitation. The electrocardiograph was connected to measure the postoperative electrocardiogram. […] The drug was administered orally by gavage in a volume of 10 ml/kg, and the frequency of administration was once a day for 4 weeks, and then the rats were anesthetized for cardiac ultrasound.
The rats were anesthetized by intraperitoneal injection of sodium pentobarbital 40 mg/kg, and the limbs were fixed on a wooden board in supine position, and the board was tilted to the left at 30 degrees. The chest was shaved and a II lead ECG was connected. A ULTRAMARK 9 ultrasonic diagnostic instrument from ATL, USA was used with a wide bandwidth line array probe with a frequency of 10 MHz-5 MHz. The Doppler detection frequency was 6.0 MHz, the length of the probe was 38 mm, the gain of the instrument was fixedly set as 50 dB in the experiment, and the depth of the image was adjusted to 2.5 cm. The probe was placed on the left side of the sternum at 10-30 degrees from the midline of the sternum to display the parasternal left ventricular long-axis view, and the probe was rotated clockwise by 90 degrees to display the left ventricular view. Doppler flow measurements of the mitral and aortic valves were performed in the parasternal left ventricular long-axis view and the pulmonary artery long-axis view. Ultrasound measurement indexes included left ventricular end-diastolic internal diameter (LVDd), end-systolic internal diameters (LVDs), left ventricular ejection fraction EF, left ventricular short-axis shortening rate FS, and infarct size.

SMILES: O=C(O)C[S+]([O-])c1cc(NS(=O)(=O)c2ccc(Br)cc2)c2ccccc2c1O (centres unmarked) [I-1]
- average movement speed, open field ([1]; TJ0113 10 mg/kg and 30 mg/kg, FIG. 61): significantly increased
- sugar water preference ([1]; TJ0113 30 mg/kg, gavage, FIG. 57): significantly increased
- time in despair (immobility), tail-hanging experiment ([1]; TJ0113 30 mg/kg, FIG. 58): significantly decreased
- distance moved, open field ([1]; TJ0113 30 mg/kg, FIG. 59): significantly increased
- time in the edge area of the open field ([1]; TJ0113 30 mg/kg, FIG. 60): significantly decreased
- IL-1β level in kidney tissues [2]: tendency to be decreased
- infarct size ([3]; FIG. 37): reduced
- left ventricular end-diastolic diameter (LVDd) ([3]; FIG. 38): no significant effect
- end-systolic diameter (LVDs) ([3]; FIG. 39): did not have a significant effect
- left ventricular ejection fraction EF ([3]; FIG. 40): significantly increased
- left ventricular short-axis fractional shortening FS ([3]; FIG. 41): significantly increased
